# Measurements from patent publication US20260347399A1, “BRAIN PENETRATING PEPTIDES AND METHODS OF USE” (priority 2022, published 2026).
# Entries after “also recorded” stand apart in the source; their conditions may differ. Ends that are not written are not given here.
# How the values were obtained:
# brain parenchyma = experiment: Peptide-phage homing in vivo vs ex vivo; set-up: species or system mouse
# [1] = test system: WT-GBM, VEGFko, U87MG or NCH421k GBM; experiment: CVG peptide-phage homing in glioblastoma (four models); format: in vivo, mouse; conditions: peptide-phage i.v., 1 h
# Experimental: (§1) To assess homing of CVG peptide in glioblastoma, CVGTNCY (SEQ ID NO:2) peptide-phage was injected iv into mice bearing either WT-GBM, VEGFko, U87MG or NCH421k GBM, and to mice without a tumor. At one hour time point mice were perfused, brains and control organs collected and titered. […] (FIGS. 17A-17B) Distribution of CVG peptide in GBM and brain parenchyma was also assessed. CVGTNCY (SEQ ID NO:2) peptide or its scrambled version (CVYTCNG; (SEQ ID NO: 68)) was injected iv into glioma bearing mice, after 1 hour circulation mice were perfused and tissues of interest snap-frozen in liquid nitrogen.
# brain tissue homogenate = experiment: Peptide-phage binding to brain tissue homogenate ex vivo; set-up: species or system mouse
# [2] = test system: GBM and normal brain parenchyma; experiment: Synthetic peptide homing in glioma-bearing mice (IHC); format: in vivo, mouse; conditions: synthetic peptide i.v., 1 h
# Experimental: CVGTNCY (SEQ ID NO:2) peptide-phage or control phage were injected iv into mice, after one hour circulation animals were perfused with 20 ml PBS, organs were collected, weighed, and dropped to 1% NP40-LB solution. Organs were homogenized and titer of each tissue was determined. FAM-labeled peptides (2 mM of peptide in PBS) were injected intravenously and 3 hours later the animals were perfused with 20 mL of PBS. The organs were excised, snap-frozen in the vapor of liquid nitrogen, and stored at −80 °C. For confocal microscopy, the tissues were sectioned at 15 μm and stained with antibodies and DAPI.
# Cryosections (15 μm) on Superfrost Plus slides were fixed in cold methanol, washed in PBS, treated with 3% hydrogen peroxide, and blocked in PBS containing 0.05% Tween-20, 5% BSA, and 5% goat serum (GE Healthcare, UK) for 1 h. The sections were immunostained with rabbit anti-fluorescein (cat #A889, Thermo Fisher Scientific, MA, USA) antibody overnight at +4 °C. […] Sections were imaged with Leica Aperio VERSA microscope slide scanner. Imaged were processed with Aperio Image Scope (v12.4.3.5008).
# The synthetic CVGTNCY (SEQ ID NO:2) peptide or scrambled CVGTNCY (SEQ ID NO:2) homing in WT-GBM and VEGFko GBM-bearing mice was analyzed after i.v. injection and perfusion of the animals. Cryosections of glioma-bearing brains were stained with anti-FAM antibody and tyramide amplification kit to enhance the signal of the peptide.
# as §1
# mouse brain = experiment: In vivo phage display with CX4CYX library
# Experimental: In vivo phage display with CX4CYX library was performed in three selection rounds. Phage library was injected intravenously to Balb/c mice and allowed to circulate for one hour. After circulation, the animals were anesthetized and perfused intracardially with acid and detergent buffers. Brain and control organs were collected and homogenized in 1% NP40-LB. Bound phages were rescued by amplification in E. coli and their genomic DNA was sequenced by Ion Torrent next generation DNA sequencing system.
# A novel phage library CX4CYX was constructed based on the alanine-leucine screen to find new brain homing peptides). This knowledge directed us to construct a novel phage library CX4CYX (X—any amino acid), where Cys1, Cys6 and Tyr7 remained in their intact positions, and the four amino acid variable-domain laid between the cysteines, and one amino acid variability after Tyr7. Three rounds of phage bio-panning was performed to allow enrichment of peptides in the brain. Again acid and detergent buffers were used for perfusion to remove non-specifically bound phages from the brain after systemic administration of phage library (round 1) and recovered brain phage pools (round 2 and 3). HTS reads from round 1 to round 3 indicated decent enrichment of in-frame peptides in the brain (Table 6).
# LRP-1 cluster III = molecular target: T1, LRP-1 cluster III (Homo sapiens, UniProt Q07954); experiment: Bead binding assay (FACS); conditions: 10 nM LRP-1 cluster III, biotinylated peptide on beads
# T1 construct: detected by anti-human antibody
# T1 sequence (Q07954 2522-2941 limits assumed): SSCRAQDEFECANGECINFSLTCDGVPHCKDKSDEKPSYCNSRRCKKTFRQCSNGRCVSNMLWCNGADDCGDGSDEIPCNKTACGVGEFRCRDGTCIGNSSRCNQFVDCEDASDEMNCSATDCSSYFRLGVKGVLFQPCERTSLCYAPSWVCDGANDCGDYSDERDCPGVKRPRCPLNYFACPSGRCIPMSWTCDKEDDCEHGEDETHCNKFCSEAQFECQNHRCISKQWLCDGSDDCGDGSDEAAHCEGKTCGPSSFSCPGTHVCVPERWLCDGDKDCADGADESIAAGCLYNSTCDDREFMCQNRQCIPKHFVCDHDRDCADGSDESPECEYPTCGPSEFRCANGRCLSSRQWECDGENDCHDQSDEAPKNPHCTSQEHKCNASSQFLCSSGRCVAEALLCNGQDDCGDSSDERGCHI
# Experimental: (§2) Briefly, 50 μl of Myone Dynabeads were washed multiple times and incubated with 100 μl of 2 mM biotinylated peptide at room temperature for 2h. Beads were washed twice with PBS, 0.01% Tween 20-DPBS, and 0.01% PBS-BSA. The beads were then incubated overnight with 10 nM LRP-1 cluster II, or LRP-1 cluster III, and Alexa Fluor 647 anti-human LRP-1 antibody (1:200) in PBS with 0.1% BSA (FIGS. 19A-19B).
# (§3) The beads were washed several times and analyzed by FACS. Samples are indicated as follows: • Negative control (−ve control): beads incubated with biotin (non-peptide), LRP-1 cluster III protein, and Alexa Fluor 647 anti-human antibody; • Positive control for the cluster II expts: beads incubated with biotinylated-Angiopep2 peptide, LRP-1 cluster II protein and Alexa Fluor 647 anti-human LRP-1 antibody (see FIG. 19A); and • Positive control for cluster III expts: beads incubated with biotinylated-RPAR peptide, Neuropilin-1 b1b2 protein, (1:200) anti-neuropilin-1 antibody, (1:200) and Alexa Fluor 647 anti-rabbit antibody (see FIG. 19B).
# (§4) 10,000 events per condition were analyzed. Experient was performed in three replicates per condition and t-test compared scramble sequence (SARVISRAKLARAL (SEQ ID NO:70)) with Cerepep.
# LRP-1 cluster II = molecular target: T2, LRP-1 cluster II (Homo sapiens, UniProt Q07954); experiment: Bead binding assay (FACS); conditions: 10 nM LRP-1 cluster II, biotinylated peptide on beads
# T2 construct: detected by anti-human LRP-1 antibody
# T2 sequence (Q07954 786-1165 limits assumed): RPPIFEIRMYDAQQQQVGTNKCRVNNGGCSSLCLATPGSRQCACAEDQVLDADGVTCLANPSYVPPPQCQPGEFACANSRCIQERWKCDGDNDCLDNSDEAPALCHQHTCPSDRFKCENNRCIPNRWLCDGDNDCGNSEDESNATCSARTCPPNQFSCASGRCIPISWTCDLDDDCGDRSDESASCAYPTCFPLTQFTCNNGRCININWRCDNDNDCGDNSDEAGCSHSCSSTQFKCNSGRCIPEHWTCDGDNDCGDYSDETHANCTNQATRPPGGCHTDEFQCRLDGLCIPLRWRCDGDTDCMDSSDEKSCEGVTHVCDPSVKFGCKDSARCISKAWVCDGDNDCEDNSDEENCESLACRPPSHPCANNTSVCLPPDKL
# Experimental: as §2, §3, §4
# rat brain = experiment: Peptide-phage biodistribution after i.v. injection, rats; format: in vivo; conditions: 1 h
# Experimental: For titering-based biodistribution studies, nucleotide sequences coding for peptides of interest were cloned into T7 phage genomic DNA to be expressed on the phage surface as C-terminal fusions to capsid protein. The cloning was performed using complementary oligonucleotides, the phage clones were amplified, and purified as described in (Põšnograjeva, et al., 2022). 5×10^9 pfu of peptide-phage clone was injected i.v. into male Balb/C mice or 5×10^10 pfu of phage was injected into female Sprague-Dawley rats (n=3). 60 min later, the animals were anesthetized and perfused with PBS. The tissues were collected, homogenized, and the amount of phage in tissue lysates was determined by titering using E. coli strain BLT5615.
# The brain selectivity of SRRVISRAKLAAAL (SEQ ID NO:9) phage following a systemic administration was studied in mice and rats by determining the titer of […] (SEQ ID NO:9) and control phage in multiple control tissues.
# [3] = WT-GBM and VEGFko GBM-bearing mice
Substance,brain homing in vivo after iv injection (brain parenchyma),PFU per mg of GBM vs normal brain [1],ratio of CVG over G7 in GBM vs normal brain [1],"binding to brain tissue homogenate ex vivo in the presence of whole blood (brain tissue homogenate; with blood sample, p<0.05)",binding to brain tissue homogenate ex vivo (brain tissue homogenate; without blood),cell type targeted in normal brain [2],"detection in brain parenchyma [2, 3]","detection/targeting in GBM [2, 3]","detection in brain parenchyma ([2]; WT-GBM and VEGFko GBM-bearing mice, listed as CVG)",R1 reads (mouse brain; round 1),R3 reads (mouse brain; round 3),"reads in the brain compared to CAGALCY (mouse brain; round 3, vs CAGALCY)",R3 > R1 (ratio of sequencing reads between round 3 and round 1) (mouse brain; round 3 / round 1),interaction with LRP-1 cluster III (LRP-1 cluster III),interaction with LRP-1 cluster II (LRP-1 cluster II),brain selectivity (titer in brain vs control tissues) (rat brain)
CVGTNCY,homes to the brain parenchyma,greater than normal brain tissue,lower than in normal brain,significantly increase binding,no binding was detected; also recorded: significantly disrupted,binding to the cortical neurons in the normal brain,detected in the brain parenchyma,activated microglia in GBM,homed to brain parenchyma and GBM,12 reads,37038 reads,about 40 times,3087,–,–,–
"SRRVISRAKLAAAL [Cerepep, SRRVISRAKLAAAL]",–,–,–,–,–,–,–,–,–,–,–,–,–,interacts with LRP-1 cluster II and cluster III,interacts with LRP-1 cluster II,highest accumulation in the brain and low accumulation in all other tested tissues
